Patent US10961228B2, “JAK1 selective inhibitors” (AstraZeneca AB, priority 2017, dated 2021)

Columns and labels:
[1] = molecular target: recombinant JAK2 (amino acids 831-1132) (Homo sapiens (Human), UniProt O60674); test: Enzyme inhibition studies, JAK2 (5 mM ATP, Caliper); format: biochemical
Description: (§1) JAK enzyme was expressed as N-terminal GST fusion in insect cells and purified by glutathione-affinity and size-exclusion chromatographies. Enzymes were assayed at their approximated high end of physiological ATP concentration of 5 mM, in the presence of inhibitor dosed at 30, 3, 0.3, 0.03, 0.003 and 0 μM final test concentrations.
(§2) Phosphorylated and unphosphotylated peptides were separated and quantified by a Caliper LC3000 system (Caliper Life Sciences, MA) for calculating percent inhibition.

[2] = system: IL-13 induced STAT6 promotor luciferase reporter in U937 monocytes (U937-STAT6-Luc); test: Cellular interleukin (IL-13) induced JAK-STAT6-luciferase assay (pSTAT6); format: cell-based; details: Homo sapiens, U-937; IL-13 induced STAT6-luciferase, U937-STAT6-Luc cells
Description: Cells were harvested by centrifugation at 250 g for 5 min and resuspended in Assay buffer (20 mM HEPES, 1×HBSS and 0.1% BSA) to 1000 cells pr μl. For stimulation of cells was used interleukin (IL-13) also dissolved in Assay buffer to […]. […] Test and control compounds were applied to assay plates (low vol white 384-well plates) in serial dilutions from 10 mM to 0.5 nM at 5 nl pr well in DMSO.
To each well was added 4 μl cells and 4 μl interleukin (IL-13) and the plates were sealed and incubated at 37° C. for 4½ h and then at room temperature for 30 min. The assay was developed by addition of 4 μl pr well of SteadyGlo (Promega) and after […] the plates were read at an Envision plate reader with luminescence filter.

[3] = molecular target: recombinant JAK1 (amino acids 866-1154) (Homo sapiens (Human), UniProt P23458); test: Enzyme inhibition studies, JAK1 (5 mM ATP, Caliper); format: biochemical
Description: as §1, §2

[4] = molecular target: recombinant JAK3 (amino acids 781-1124) (Homo sapiens (Human), UniProt P52333); test: Enzyme inhibition studies, JAK3 (5 mM ATP, Caliper); format: biochemical
Description: as §1, §2

recombinant JAK1 (amino acids 866-1154), sequence (P23458 866-1154): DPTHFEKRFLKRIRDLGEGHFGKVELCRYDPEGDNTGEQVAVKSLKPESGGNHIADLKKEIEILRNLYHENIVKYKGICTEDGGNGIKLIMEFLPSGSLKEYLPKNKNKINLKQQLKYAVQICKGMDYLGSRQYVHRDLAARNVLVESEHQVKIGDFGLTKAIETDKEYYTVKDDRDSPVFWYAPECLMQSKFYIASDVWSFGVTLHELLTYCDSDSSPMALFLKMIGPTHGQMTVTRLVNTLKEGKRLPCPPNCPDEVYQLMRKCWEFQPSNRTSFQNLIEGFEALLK
recombinant JAK3 (amino acids 781-1124), sequence (P52333 781-1124): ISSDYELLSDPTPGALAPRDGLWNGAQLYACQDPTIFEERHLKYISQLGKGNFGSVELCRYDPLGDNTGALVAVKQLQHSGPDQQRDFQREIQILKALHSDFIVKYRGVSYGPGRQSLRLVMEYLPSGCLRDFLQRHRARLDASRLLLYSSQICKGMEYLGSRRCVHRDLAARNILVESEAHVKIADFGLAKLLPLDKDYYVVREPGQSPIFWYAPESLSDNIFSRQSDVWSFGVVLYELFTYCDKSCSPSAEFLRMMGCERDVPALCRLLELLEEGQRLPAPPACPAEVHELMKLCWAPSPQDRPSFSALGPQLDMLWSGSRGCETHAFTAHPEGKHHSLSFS
recombinant JAK2 (amino acids 831-1132), sequence (O60674 831-1132): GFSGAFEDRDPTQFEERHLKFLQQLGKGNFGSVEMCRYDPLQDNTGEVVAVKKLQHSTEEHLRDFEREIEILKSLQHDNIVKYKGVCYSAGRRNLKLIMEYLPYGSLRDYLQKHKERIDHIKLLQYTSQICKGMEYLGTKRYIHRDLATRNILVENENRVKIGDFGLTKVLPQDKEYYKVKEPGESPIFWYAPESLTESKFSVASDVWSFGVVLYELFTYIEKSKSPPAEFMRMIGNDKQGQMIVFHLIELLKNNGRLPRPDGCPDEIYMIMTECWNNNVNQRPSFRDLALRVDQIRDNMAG

Structure (SMILES)	IC50 [1]	IC50 [2]	IC50 [3]	IC50 [4]
COC[C@@H](C(=O)Nc1cccc2c(-c3nc(Nc4cccc(S(C)(=O)=O)c4F)ncc3F)c[nH]c12)N1C[C@H](C)N(C)[C@@H](C)C1 [Example 40]	> 30000 nM	> 6250 nM	3280 nM	> 30000 nM
COC[C@@H](C(=O)Nc1cccc2c(-c3nc(Nc4cccc(S(C)(=O)=O)c4F)ncc3F)c[nH]c12)N1CCNCC1 [Example 67, (S)-N-(3-(5-fluoro-2-(2-fluoro-3-(methylsulfonyl)phenylamino)pyrimidin-4-yl)-1H-indol-7-yl)-3-methoxy-2-(piperazin-1-yl)propanamide]	–	1390 nM	–	–
COC[C@@H](C(=O)Nc1cccc2c(-c3nc(Nc4cccc(S(C)(=O)=O)c4F)ncc3C)c[nH]c12)N1CCN(C)CC1 [Example 15, (S)-N-(3-(2-((2-fluoro-3-(methylsulfonyl)phenyl)amino)-5-methylpyrimidin-4-yl)-1H-indol-7-yl)-3-methoxy-2-(4-methylpiperazin-1-yl)propanamide]	–	465 nM	213 nM	> 30000 nM
CC(C(=O)Nc1cccc2c(-c3nc(Nc4cccc(S(C)(=O)=O)c4F)ncc3F)c[nH]c12)N1CCN(C)C[C@H]1C (stereo in doubt) [Example 49, (R)-2-((R)-2,4-dimethylpiperazin-1-yl)-N-(3-(5-fluoro-2-((2-fluoro-3-(methylsulfonyl)phenyl)amino)pyrimidin-4-yl)-1H-indol-7-yl)propanamide]	–	93 nM	13 nM	> 30000 nM
COC[C@@H](C(=O)Nc1cccc2c(-c3nc(Nc4cccc(S(C)(=O)=O)c4F)ncc3F)c[nH]c12)N1CCN(C)CC1 [Example 34, (S)-N-(3-(5-fluoro-2-((2-fluoro-3-(methylsulfonyl)phenyl)amino)pyrimidin-4-yl)-1H-indol-7-yl)-3-methoxy-2-(4-methylpiperazin-1-yl)propanamide]	–	> 4200 nM	1840 nM	> 30000 nM
CC[C@H](C(=O)Nc1cccc2c(-c3nc(Nc4cccc(S(C)(=O)=O)c4F)ncc3C)c[nH]c12)N1C[C@H](C)N(C)[C@@H](C)C1 [Example 20, (R)-N-(3-(2-((2-fluoro-3-(methylsulfonyl)phenyl)amino)-5-methylpyrimidin-4-yl)-1H-indol-7-yl)-2-((3S,5S)-3,4,5-trimethylpiperazin-1-yl)butanamide]	–	51 nM	–	–
COC[C@H](C(=O)Nc1cccc2c(-c3nc(Nc4cccc(S(C)(=O)=O)c4F)ncc3C)c[nH]c12)N1CCN(C)CC1 [Example 16, (R)-N-(3-(2-((2-fluoro-3-(methylsulfonyl)phenyl)amino)-5-methylpyrimidin-4-yl)-1H-indol-7-yl)-3-methoxy-2-(4-methylpiperazin-1-yl)propanamide]	–	18 nM	< 3 nM	> 30000 nM
CCOC[C@H](C(=O)Nc1cccc2c(-c3nc(Nc4cccc(S(C)(=O)=O)c4F)ncc3F)c[nH]c12)N1CCN(C)CC1 [Example 63, (R)-3-ethoxy-N-(3-(5-fluoro-2-((2-fluoro-3-(methylsulfonyl)phenyl)amino)pyrimidin-4-yl)-1H-indol-7-yl)-2-(4-methylpiperazin-1-yl)propanamide]	–	99 nM	–	–
COC[C@H](C(=O)Nc1cccc2c(-c3nc(Nc4cccc(S(C)(=O)=O)c4F)ncc3F)c[nH]c12)N1CCNCC1 [Example 66, (R)-N-(3-(5-fluoro-2-(2-fluoro-3-(methylsulfonyl)phenylamino)pyrimidin-4-yl)-1H-indol-7-yl)-3-methoxy-2-(piperazin-1-yl)propanamide]	–	51 nM	–	–
Cc1cnc(Nc2cccc(S(C)(=O)=O)c2F)nc1-c1c[nH]c2c(NC(=O)[C@@H](C)N3C[C@H](C)N[C@@H](C)C3)cccc12 [Example 9, (R)-2-((3S,5S)-3,5-dimethylpiperazin-1-yl)-N-(3-(2-((2-fluoro-3-(methylsulfonyl)phenyl)amino)-5-methylpyrimidin-4-yl)-1H-indol-7-yl)propanamide]	–	55 nM	–	–
